Experimental data: patent publication US4568687A, “N-[2-4-(1H-Imidazol-1-yl)alkyl]-arylamides and pharmaceutical compositions” (American Cyanamid Company, priority 1984, dated 1986)
Structures can show the parent of a compound that is named as a salt.

Each compound was assayed against T1, thromboxane synthetase (Rattus norvegicus, UniProt P49430) (assay: Inhibition of thromboxane (TXB2) formation in washed rat platelets, TXB2 by direct radioimmunoassay). Conditions: 10 min; Dose 10^-4 (unit inferred); SHR platelet suspension, 10 minutes at 37° C.
T1 construct: The platelets were isolated by centrifuging the PRP for 10 minutes; endogenous in cells; host or cells: washed platelets from arterial blood of Okamoto-Aoki spontaneously hypertensive rats (rats from Taconic Farms)
T1 sequence (P49430 1-533): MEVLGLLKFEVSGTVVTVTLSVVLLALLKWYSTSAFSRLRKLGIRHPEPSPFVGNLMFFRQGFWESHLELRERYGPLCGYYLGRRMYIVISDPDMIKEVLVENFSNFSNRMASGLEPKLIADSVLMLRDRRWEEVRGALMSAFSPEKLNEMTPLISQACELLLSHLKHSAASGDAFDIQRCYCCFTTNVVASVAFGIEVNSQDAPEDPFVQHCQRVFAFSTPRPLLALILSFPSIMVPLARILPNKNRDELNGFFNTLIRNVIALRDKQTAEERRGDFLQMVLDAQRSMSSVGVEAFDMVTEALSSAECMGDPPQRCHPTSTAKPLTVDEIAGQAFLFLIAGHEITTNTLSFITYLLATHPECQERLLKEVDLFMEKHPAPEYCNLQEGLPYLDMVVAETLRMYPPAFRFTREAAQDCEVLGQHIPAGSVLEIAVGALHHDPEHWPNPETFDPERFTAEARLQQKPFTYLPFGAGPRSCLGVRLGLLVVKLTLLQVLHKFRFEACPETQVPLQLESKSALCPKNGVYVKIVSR
Type: cell-based, Okamoto-Aoki spontaneously hypertensive rats (SHR)
Method: Under urethan anesthesia, […] of arterial blood was collected in one ml. of 3.2% sodium citrate in a polystyrene tube from Okamoto-Aoki spontaneously hypertensive rats (SHR) (Taconic Farms, Germantown, NY) between 19 and 24 weeks in age. The blood was diluted with 3 ml. cold saline and centrifuged at room temperature for 15 minutes at 460×g. The platelet rich plasma (PRP) was separated. The platelets were isolated by centrifuging the PRP for 10 minutes at 1060×g and were washed in 4 ml. cold oxygenated Krebs phosphate buffer, pH 7.4. The chilled patelets recovered from centrifuging at 800×g for 10 minutes were resuspended in oxygenated Krebs phosphate buffer and diluted to contain 4.5-6.0×10^4 platelets/μl.
The inhibition of thromboxane (TX) formation was studied by determining the […] of thromboxane B2 (TXB2), the stable hydrolysis product of TXA2. Assay samples, prepared on ice, contained 200 μl platelet suspension, 50 μl saline, and 50 μl vehicle or drug under study (OKY-1581, UK-37248-01, 1-benzylimidazole, or indomethacin). The samples were incubated for 10 minutes at 37° C. in a metabolic shaker. The reaction was terminated by immersing the tubes in an ice bath and adding 50 μl of 0.5M citric acid. The samples were centrifuged for 10 minutes in a refrigerated centrifuge and the supernatants thus obtained were decanted and stored at -20° C. The TXB2 content for each sample was determined by a direct radioimmunoassay (RIA) utilizing a TXB2 specific RIA kit purchased from New England Nuclear, Boston, MA and expressed as pg TXB2 formed minute^-1 sample^-1, from which the percent inhibition of TXB2 formation was calculated.

SMILES | inhibition at 100 µM
Cc1cc(Cl)cc(C(=O)NCCCn2ccnc2)c1N [2-amino-5-chloro-3-methyl-N--[3-(1H--imidazol-1-yl)propyl]benzamide dihydrochloride salt] | 80%
O=C1c2ccccc2C(=O)N1CCCCn1ccnc1 [2-[4-(1H-Imidazol-1-yl)butyl]-1H-isoindole-1,3(2H)-dione] | 99%
O=C(NCCCn1ccnc1)c1ccc(Br)cc1 [4-bromo-N--[3-(1H--imidazol-1-yl)propyl]benzamide] | 85%
O=C(NCCCn1ccnc1)c1cccc2ccccc12 [N--[3-(1H--imidazol-1-yl)propyl]-1-naphthalenecarboxamide] | 75%
O=C(NCCCn1ccnc1)c1ccc2ccccc2c1 [N--[3-(1H--imidazol-1-yl)propyl]-2-naphthalenecarboxamide] | 97%
O=C(NCCCn1ccnc1)c1cccc(Cl)c1 [3-Chloro-N-[3-(1H-imidazol-1-yl)propyl]benzamide] | 75.4%
CC(CCNC(=O)c1ccc(Cl)c(Cl)c1)n1ccnc1 (stereo not shown) [3,4-dichloro-N--[3-(1H--imidazol-1-yl)butyl]benzamide] | 86%
O=C(NCCCn1cnc(-c2ccccc2)c1)c1ccc(Cl)cc1 [4-Chloro-N-[3-(4-phenyl-1H-imidazol-1-yl)propyl]-benzamide] | 69%
Cc1cn(CCCNC(=O)c2ccc(Cl)cc2)cn1 [4-chloro-N--[3-(4-methyl-1H--imidazol-1-yl)propyl]benzamide] | 93%
Cc1cn(CCCNC(=O)c2ccc(Br)cc2)cn1 [4-bromo-N--[3-(4-methyl-1H--imidazol-1-yl)propyl]benzamide] | 80%
O=C(NCCCn1ccnc1)c1ccc(Cl)cc1 [4-chloro-N--[3-(1H--imidazol-1-yl)propyl]benzamide] | 95%

The next lines start with the values.

inhibition at 100 µM | SMILES
90% | Cc1cn(CCCNC(=O)c2ccc(Cl)c(Cl)c2)cn1 [3,4-dichloro-N--[3-(4-methyl-1H--imidazol-1-yl)propyl]benzamide]
95% | O=C(NCCCn1ccnc1)c1ccccc1-c1ccccc1 [2-phenyl-N--[3-(1H--imidazol-1-yl)propyl]benzamide]
95% | C=CCNc1ccc(Cl)cc1C(=O)NCCCn1ccnc1 [2-Allylamino-5-chloro-N--[3-(1H--imidazol-1-yl)propyl]benzamide]
97% | O=C(NCCCCn1ccnc1)c1ccc(C(F)(F)F)cc1 [4-trifluoromethyl-N--[4-(1H--imidazol-1-yl)butyl]benzamide fumarate]
96% | Nc1ccc(Cl)cc1C(=O)NCCCn1ccnc1 [2-amino-5-chloro-N--[3-(1H--imidazol-1-yl)propyl]benzamide]
84% | Cc1cn(CCCNC(=O)c2cccc(Cl)c2)cn1 [3-chloro-N--[3-(4-methyl-1H--imidazol-1-yl)propyl]benzamide]
96.3% | O=C(NCCCn1ccnc1)c1ccccc1 [N-[3-(1H-Imidazol-1-yl)propyl]benzamide]
92% | Cc1cn(CCCNC(=O)c2ccc(C(F)(F)F)cc2)cn1 [4-trifluoromethyl-N--[3-(4-methyl-1H--imidazol-1-yl)propyl]benzamide]

These compounds were tested on spontaneously hypertensive rats of the Okamoto strain (assay: Hypotensive activity: mean arterial blood pressure (MABP) in spontaneously hypertensive rats, method of Chan and Poorvin). Conditions: gavage, 100 mg/kg or less, two doses 24 hours apart, sodium chloride loading; 28 hours after initial dose; average of 1-4 rats; initial average 160±1.5 mm; active if ≤116 (1 rat), ≤122 (2 rats), ≤128 (3 rats).
Type: in vivo
Method: The novel compounds of the present invention are also active hypotensive agents and were tested for hypotensive activity by the method of P. S. Chan and D. Poorvin, Clinical and Experimental Hypertension, 1 (6), 817-830 (1979). Male, 16 week old, spontaneously hypertensive rats of the Okamoto strain, from Taconic Farms, Germantown, N.Y. having an average mean arterial blood pressure of 160±1.5 mm of mercury are used in the test. […] A rat is dosed by gavage with a test compound, suspended in 2% pre-boiled starch at a concentration of 50 mg/ml, at a dose of 100 mg/kg of body weight or less, with 0.9% sodium chloride loading at a dose of 25 ml/kg of body weight. A second identical dose of the test compound, without sodium chloride loading is given 24 hours later. At 28 hours after the initial dose, the mean arterial blood pressure (MABP) is measured by the method of Chan and Poorvin vide supra. The procedure is repeated in a second and third rat when necessary. Based on the data obtained and using the three-stage "sequential probability ratio test" statistical method, the criteria for activity or retest are as follows:
If the blood pressure in the first rat is ≤116 mm mercury the compound is considered active. If the blood pressure is between […], a second rat is used. If the average blood pressure of the first and second rats is ≤122 mm the compound is considered active. If the average blood pressure is between 123 and 137 mm, a third rat is used. If the average blood pressure of the three rats is ≤128 mm the compound is considered active. The results of this test on representative compounds of the present invention appear in Table II below.

SMILES | MABP/mm Hg
Cc1cc(Cl)cc(C(=O)NCCCn2ccnc2)c1N [2-amino-5-chloro-3-methyl-N--[3-(1H--imidazol-1-yl)propyl]benzamide dihydrochloride salt] | 125 mm Hg
Cc1nccn1CCCNC(=O)c1ccc(Cl)cc1 [4-chloro-N--[3-(2-methyl-1H--imidazol-1-yl)propyl]benzamide] | 121 mm Hg
O=C1c2ccccc2C(=O)N1CCCCn1ccnc1 [2-[4-(1H-Imidazol-1-yl)butyl]-1H-isoindole-1,3(2H)-dione] | 120 mm Hg
Cc1cn(CCCNC(=O)c2ccc(Cl)c(Cl)c2)cn1 [3,4-dichloro-N--[3-(4-methyl-1H--imidazol-1-yl)propyl]benzamide] | 116 mm Hg
O=C(NCCCn1ccnc1)c1ccccc1-c1ccccc1 [2-phenyl-N--[3-(1H--imidazol-1-yl)propyl]benzamide] | 124 mm Hg
O=C(NCCCn1ccnc1)c1ccc(Br)cc1 [4-bromo-N--[3-(1H--imidazol-1-yl)propyl]benzamide] | 120 mm Hg
C=CCNc1ccc(Cl)cc1C(=O)NCCCn1ccnc1 [2-Allylamino-5-chloro-N--[3-(1H--imidazol-1-yl)propyl]benzamide] | 124 mm Hg
O=C(NCCCCn1ccnc1)c1ccc(C(F)(F)F)cc1 [4-trifluoromethyl-N--[4-(1H--imidazol-1-yl)butyl]benzamide fumarate] | 123 mm Hg
O=C1c2ccccc2C(=O)N1CCCCCCn1ccnc1 [2-[6-(1H--imidazol-1-yl)hexyl]-1H--isoindole-1,3(2H)--dione] | 110 mm Hg
O=C(NCCCn1ccnc1)c1cccc2ccccc12 [N--[3-(1H--imidazol-1-yl)propyl]-1-naphthalenecarboxamide] | 124 mm Hg
Nc1ccc(Cl)cc1C(=O)NCCCn1ccnc1 [2-amino-5-chloro-N--[3-(1H--imidazol-1-yl)propyl]benzamide] | 113 mm Hg
CC(CCN1C(=O)c2ccccc2C1=O)n1ccnc1 (stereo not shown) [2-[3-(1H--imidazol-1-yl)butyl]-1H--isoindole-1,3(2H)--dione] | 124 mm Hg
Cc1cn(CCCNC(=O)c2cccc(Cl)c2)cn1 [3-chloro-N--[3-(4-methyl-1H--imidazol-1-yl)propyl]benzamide] | 122 mm Hg
O=C(NCCCn1ccnc1)c1ccc2ccccc2c1 [N--[3-(1H--imidazol-1-yl)propyl]-2-naphthalenecarboxamide] | 127 mm Hg
O=C(NCCCn1ccnc1-c1ccccc1)c1ccc(Br)cc1 [4-bromo-N--[3-(2-phenyl-1H--imidazol-1-yl)propyl]benzamide, fumarate] | 115 mm Hg
O=C(NCCCn1ccnc1)c1cccc(Cl)c1 [3-Chloro-N-[3-(1H-imidazol-1-yl)propyl]benzamide] | 124 mm Hg
O=C(NCCCn1ccnc1)c1ccccc1 [N-[3-(1H-Imidazol-1-yl)propyl]benzamide] | 128 mm Hg
CC(CCNC(=O)c1ccc(Cl)c(Cl)c1)n1ccnc1 (stereo not shown) [3,4-dichloro-N--[3-(1H--imidazol-1-yl)butyl]benzamide] | 123 mm Hg
O=C(NCCCn1cnc(-c2ccccc2)c1)c1ccc(Cl)cc1 [4-Chloro-N-[3-(4-phenyl-1H-imidazol-1-yl)propyl]-benzamide] | 125 mm Hg
Cc1cn(CCCNC(=O)c2ccc(Cl)cc2)cn1 [4-chloro-N--[3-(4-methyl-1H--imidazol-1-yl)propyl]benzamide] | 112 mm Hg
Cc1cn(CCCNC(=O)c2ccc(Br)cc2)cn1 [4-bromo-N--[3-(4-methyl-1H--imidazol-1-yl)propyl]benzamide] | 122 mm Hg
Cc1cn(CCCNC(=O)c2ccc(C(F)(F)F)cc2)cn1 [4-trifluoromethyl-N--[3-(4-methyl-1H--imidazol-1-yl)propyl]benzamide] | 114 mm Hg
Cc1ccc(CC(=O)NCCCn2ccnc2)cc1 [N--[3-(1H--imidazol-1-yl)propyl]-4-methylbenzeneacetamide, hemifumarate] | 109 mm Hg
O=C(NCCCn1ccnc1)c1ccc(Cl)cc1 [4-chloro-N--[3-(1H--imidazol-1-yl)propyl]benzamide] | 126 mm Hg
